# Experimental data: patent US11998539B2, “Substituted aminoquinolones as DGKalpha inhibitors for immune activation” (Bayer Aktiengesellschaft, priority 2019, dated 2024)
# Target: DGKα (Homo sapiens (Human), UniProt P23743)
# Assay: Human DGKα kinase activity inhibition assay (ADP-Glo)
# Assay type: biochemical
# Conditions: recombinant full-length human DGKα, 55 μM ATP, 7 μM 1,2-dioleoyl-sn-glycerol, read-out: IC50 values of examples in in vitro human DGKa kinase activity inhibition assays
# Summary of the method: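 Activity was measured as ADP production, detected by luciferase luminescence after removal of unused ATP. The enzyme was baculovirus-expressed full-length human DGKα with a C-terminal FLAG tag. The substrate was 1,2-dioleoyl-sn-glycerol in detergent micelles, and compounds came from 100× DMSO solutions.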
# Chain of DGKα (P23743 other isoform, or with tags, fused parts or gaps): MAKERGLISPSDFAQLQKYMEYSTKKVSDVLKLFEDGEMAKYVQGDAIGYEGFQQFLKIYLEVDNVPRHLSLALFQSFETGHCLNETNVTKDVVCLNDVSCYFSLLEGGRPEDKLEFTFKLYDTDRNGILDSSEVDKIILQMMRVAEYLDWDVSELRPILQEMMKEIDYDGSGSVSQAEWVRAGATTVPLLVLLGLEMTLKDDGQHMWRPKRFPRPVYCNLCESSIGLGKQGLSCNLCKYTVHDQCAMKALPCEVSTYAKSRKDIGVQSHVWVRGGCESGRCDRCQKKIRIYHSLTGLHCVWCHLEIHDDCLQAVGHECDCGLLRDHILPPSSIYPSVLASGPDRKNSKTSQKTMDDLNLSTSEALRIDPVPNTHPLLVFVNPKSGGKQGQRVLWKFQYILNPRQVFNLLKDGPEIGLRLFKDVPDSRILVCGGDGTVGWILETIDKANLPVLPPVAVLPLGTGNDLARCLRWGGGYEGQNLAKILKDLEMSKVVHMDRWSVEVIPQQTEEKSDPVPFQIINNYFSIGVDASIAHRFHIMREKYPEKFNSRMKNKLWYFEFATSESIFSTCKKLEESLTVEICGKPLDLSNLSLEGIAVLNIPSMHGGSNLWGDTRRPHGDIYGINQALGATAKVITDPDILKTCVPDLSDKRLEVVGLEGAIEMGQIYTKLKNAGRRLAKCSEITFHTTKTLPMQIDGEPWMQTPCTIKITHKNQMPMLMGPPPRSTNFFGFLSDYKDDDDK
row,Structure (SMILES),IC50
1,"Cn1c(C2CCN(c3c(C#N)c(=O)n(C)c4ccccc34)CC2)nc2ccccc21 [Example 147, 1-methyl-4-[4-(1-methyl-1H-benzimidazol-2-yl)piperidin-1-yl]-2-oxo-1,2-dihydroquinoline-3-carbonitrile]",358 nM
2,"Cc1ccc2oc(C3CCN(c4c(C#N)c(=O)n(C)c5ccc(OCC6CC6)cc45)CC3)nc2c1 [Example 408, 6-(cyclopropylmethoxy)-1-methyl-4-[4-(5-methyl-1,3-benzoxazol-2-yl)piperidin-1-yl]-2-oxo-1,2-dihydroquinoline-3-carbonitrile]",15 nM
3,"CCC1(c2nc3ccccc3o2)CCN(c2c(C#N)c(=O)n(C)c3cc(Br)ccc23)CC1 [Example 223, 4-[4-(1,3-benzoxazol-2-yl)-4-ethylpiperidin-1-yl]-7-bromo-1-methyl-2-oxo-1,2-dihydroquinoline-3-carbonitrile]",1.2 nM
4,"Cc1ccc2oc(C3CCN(c4c(C(N)=O)c(=O)n(C)c5cc(F)c(Br)cc45)CC3)nc2c1 [Example 563, 6-bromo-7-fluoro-1-methyl-4-[4-(5-methyl-1,3-benzoxazol-2-yl)piperidin-1-yl]-2-oxo-1,2-dihydroquinoline-3-carboxamide]",1.7 nM
5,"COc1ccc2c(c1)c(N1CCC(c3nnc(-c4ccccc4)o3)CC1)c(C#N)c(=O)n2C [Example 439, 6-methoxy-1-methyl-2-oxo-4-[4-(5-phenyl-1,3,4-oxadiazol-2-yl)piperidin-1-yl]-1,2-dihydroquinoline-3-carbonitrile]",492 nM
6,"Cc1ccc2oc(C3(C)CCN(c4c(C#N)c(=O)n(C)c5c(Cl)cccc45)CC3)nc2c1 [Example 231, 8-chloro-1-methyl-4-[4-methyl-4-(5-methyl-1,3-benzoxazol-2-yl)piperidin-1-yl]-2-oxo-1,2-dihydroquinoline-3-carbonitrile]",108 nM
7,"Cn1c(=O)c(C#N)c(N2CCC(c3cccc(Cl)c3)CC2)c2ccccc21 [Example 325, 4-[4-(3-chlorophenyl)piperidin-1-yl]-1-methyl-2-oxo-1,2-dihydroquinoline-3-carbonitrile]",26 nM
8,"Cn1c(=O)c(C#N)c(N2CCC(c3nc4cc(F)ccc4s3)CC2)c2ccccc21 [Example 13, 4-[4-(5-fluoro-1,3-benzothiazol-2-yl)piperidin-1-yl]-1-methyl-2-oxo-1,2-dihydroquinoline-3-carbonitrile]",5.1 nM
9,"Cc1ccc2oc(C3CCN(c4c(C(N)=O)c(=O)n(C)c5cc(OC6CCOCC6)ccc45)CC3)nc2c1 [Example 479, 1-methyl-4-[4-(5-methyl-1,3-benzoxazol-2-yl)piperidin-1-yl]-7-[(oxan-4-yl)oxy]-2-oxo-1,2-dihydroquinoline-3-carboxamide]",59 nM
10,"Cc1cccc(-n2ccc(C3CCN(c4c(C(N)=O)c(=O)n(C)c5ccccc45)CC3)n2)c1 [Example 472, 1-methyl-4-{4-[1-(3-methylphenyl)-1H-pyrazol-3-yl]piperidin-1-yl}-2-oxo-1,2-dihydroquinoline-3-carboxamide]",6.7 nM
11,"Cc1ccc2oc(C3(C)CCN(c4c(C#N)c(=O)n(C)c5ccc(C6CC6)cc45)CC3)nc2c1 [Example 210, 6-cyclopropyl-1-methyl-4-[4-methyl-4-(5-methyl-1,3-benzoxazol-2-yl)piperidin-1-yl]-2-oxo-1,2-dihydroquinoline-3-carbonitrile]",119 nM
12,"Cc1cc2c(N3CCC(c4ccn(-c5ccccc5C)n4)CC3)c(C#N)c(=O)n(C)c2cc1NCCO [Example 561, 7-[(2-hydroxyethyl)amino]-1,6-dimethyl-4-{4-[1-(2-methylphenyl)-1H-pyrazol-3-yl]piperidin-1-yl}-2-oxo-1,2-dihydroquinoline-3-carbonitrile]",1.4 nM
13,"Cc1ccc2oc(C3CCN(c4c(C(N)=O)c(=O)n(C)c5ccc(F)cc45)CC3)nc2c1 [Example 298, 6-fluoro-1-methyl-4-[4-(5-methyl-1,3-benzoxazol-2-yl)piperidin-1-yl]-2-oxo-1,2-dihydroquinoline-3-carboxamide]",0.5 nM
14,"Cc1ccc2oc(C3(C)CCN(c4c(C(N)=O)c(=O)n(C)c5ccc(Br)cc45)CC3)nc2c1 [Example 203, 6-bromo-1-methyl-4-[4-methyl-4-(5-methyl-1,3-benzoxazol-2-yl)piperidin-1-yl]-2-oxo-1,2-dihydroquinoline-3-carboxamide]",0.9 nM
15,"Cn1c(=O)c(C#N)c(N2CCC(c3cc(Cl)cc(Cl)c3)CC2)c2ccccc21 [Example 84, 4-[4-(3,5-dichlorophenyl)piperidin-1-yl]-1-methyl-2-oxo-1,2-dihydroquinoline-3-carbonitrile]",52 nM
16,"Cc1ccc2oc(C3(C)CCN(c4c(C#N)c(=O)n(C)c5cc(Br)ccc45)CC3)nc2c1 [Example 110, 7-bromo-1-methyl-4-[4-methyl-4-(5-methyl-1,3-benzoxazol-2-yl)piperidin-1-yl]-2-oxo-1,2-dihydroquinoline-3-carbonitrile]",2.6 nM
17,"COc1ccc(C2CCN(c3c(C#N)c(=O)n(C)c4cc(Br)ccc34)CC2)cc1 [Example 89, 7-bromo-4-[4-(4-methoxyphenyl)piperidin-1-yl]-1-methyl-2-oxo-1,2-dihydroquinoline-3-carbonitrile]",2.1 nM

row,Structure (SMILES),IC50
1,"Cn1c(=O)c(C(N)=O)c(N2CCC(c3nc4cc(F)c(F)cc4o3)CC2)c2ccccc21 [Example 109, 4-[4-(5,6-difluoro-1,3-benzoxazol-2-yl)piperidin-1-yl]-1-methyl-2-oxo-1,2-dihydroquinoline-3-carboxamide]",2.1 nM
2,"Cn1c(=O)c(C#N)c(N2CCC(c3cccc4occc34)CC2)c2ccccc21 [Example 101, 4-[4-(1-benzofuran-4-yl)piperidin-1-yl]-1-methyl-2-oxo-1,2-dihydroquinoline-3-carbonitrile]",12 nM
3,"Cn1c(=O)c(C(N)=O)c(N2CCC(C)(c3nc4ccccc4o3)CC2)c2ccc(C(F)(F)F)cc21 [Example 306, 4-[4-(1,3-benzoxazol-2-yl)-4-methylpiperidin-1-yl]-1-methyl-2-oxo-7-(trifluoromethyl)-1,2-dihydroquinoline-3-carboxamide]",4.1 nM
4,"COc1ccc2c(c1)c(N1CCC(C)(c3nc4cc(C)ccc4o3)CC1)c(C#N)c(=O)n2C [Example 246, 6-methoxy-1-methyl-4-[4-methyl-4-(5-methyl-1,3-benzoxazol-2-yl)piperidin-1-yl]-2-oxo-1,2-dihydroquinoline-3-carbonitrile]",6.5 nM
5,"Cc1ccc2oc(C3CCN(c4c(C#N)c(=O)n(C)c5cc(C(F)(F)F)ccc45)CC3)nc2c1 [Example 289, 1-methyl-4-[4-(5-methyl-1,3-benzoxazol-2-yl)piperidin-1-yl]-2-oxo-7-(trifluoromethyl)-1,2-dihydroquinoline-3-carbonitrile]",8.3 nM
6,"COc1cc2c(cc1Br)c(N1CCC(F)(c3nc4cc(C)ccc4o3)CC1)c(C#N)c(=O)n2C [Example 420, 6-bromo-4-[4-fluoro-4-(5-methyl-1,3-benzoxazol-2-yl)piperidin-1-yl]-7-methoxy-1-methyl-2-oxo-1,2-dihydroquinoline-3-carbonitrile]",0.6 nM
7,"COc1ccc2c(c1)c(N1CCC(C)(c3nc4ccc(C)cc4o3)CC1)c(C#N)c(=O)n2C [Example 191, 6-methoxy-1-methyl-4-[4-methyl-4-(6-methyl-1,3-benzoxazol-2-yl)piperidin-1-yl]-2-oxo-1,2-dihydroquinoline-3-carbonitrile]",7 nM
8,"Cc1ccc(-c2nnc(C3CCN(c4c(C(N)=O)c(=O)n(C)c5ccccc45)CC3)o2)cc1 [Example 462, 1-methyl-4-{4-[5-(4-methylphenyl)-1,3,4-oxadiazol-2-yl]piperidin-1-yl}-2-oxo-1,2-dihydroquinoline-3-carboxamide]",121 nM
9,"Cc1nc2cc(C3CCN(c4c(C#N)c(=O)n(C)c5ccccc45)CC3)ccc2o1 [Example 345, 1-methyl-4-[4-(2-methyl-1,3-benzoxazol-5-yl)piperidin-1-yl]-2-oxo-1,2-dihydroquinoline-3-carbonitrile]",38 nM
10,"Cn1c(=O)c(C#N)c(N2CCC(c3nnc(-c4cccc(C(F)(F)F)c4)o3)CC2)c2cc(Br)ccc21 [Example 435, 6-bromo-1-methyl-2-oxo-4-(4-{5-[3-(trifluoromethyl)phenyl]-1,3,4-oxadiazol-2-yl}piperidin-1-yl)-1,2-dihydroquinoline-3-carbonitrile]",4.3 nM
11,"Cn1c(=O)c(C#N)c(N2CCC(O)(c3ccc(Cl)cc3)CC2)c2ccccc21 [Example 151, 4-[4-(4-chlorophenyl)-4-hydroxypiperidin-1-yl]-1-methyl-2-oxo-1,2-dihydroquinoline-3-carbonitrile]",486 nM
12,"CCCOc1ccc(C2CCN(c3c(C#N)c(=O)n(C)c4ccccc34)CC2)cc1 [Example 42, 1-methyl-2-oxo-4-[4-(4-propoxyphenyl)piperidin-1-yl]-1,2-dihydroquinoline-3-carbonitrile]",11 nM
13,"Cc1nc2ccc(C3CCN(c4c(C#N)c(=O)n(C)c5ccccc45)CC3)cc2s1 [Example 377, 1-methyl-4-[4-(2-methyl-1,3-benzothiazol-6-yl)piperidin-1-yl]-2-oxo-1,2-dihydroquinoline-3-carbonitrile]",4.8 nM
14,"C=C(c1ccc2c(c1)c(N1CCC(c3nc4cc(C)ccc4o3)CC1)c(C#N)c(=O)n2C)C(F)(F)F [Example 411, 1-methyl-4-[4-(5-methyl-1,3-benzoxazol-2-yl)piperidin-1-yl]-2-oxo-6-(3,3,3-trifluoroprop-1-en-2-yl)-1,2-dihydroquinoline-3-carbonitrile]",5.1 nM
15,"Cc1ccccc1-c1noc(C2CCN(c3c(C#N)c(=O)n(C)c4ccccc34)CC2)n1 [Example 348, 1-methyl-4-{4-[3-(2-methylphenyl)-1,2,4-oxadiazol-5-yl]piperidin-1-yl}-2-oxo-1,2-dihydroquinoline-3-carbonitrile]",7.9 nM
16,"Cn1c(=O)c(C(N)=O)c(N2CCC(c3nc4cc(OCC5CCCO5)ccc4o3)CC2)c2ccccc21 (stereo not drawn) [Example 487, 1-methyl-2-oxo-4-(4-{5-[(oxolan-2-yl)methoxy]-1,3-benzoxazol-2-yl}piperidin-1-yl)-1,2-dihydroquinoline-3-carboxamide]",13 nM
